The source of these data is patent US7199147B2, “Rho kinase inhibitors” (Dainippon Sumitomo Pharma Co., Ltd., priority 2001, dated 2007).

What is called melting point is the temperature of the solid-liquid transition. `N[C@H]1CCC[C@H](Oc2ccc3[nH]ncc3c2Cl)C1` (relative stereo): the melting point fell in the range of 142 to 144 °C.
In turn, `Cc1c(O[C@H]2CCC[C@H](NC3CCCC3)C2)ccc2[nH]ncc12` (relative stereo) showed a melting point of 110 to 112 °C.
To `c1cc2[nH]ncc2cc1OC1CCOCC1` [Example 44] belongs 151 to 152 °C.
`c1cc2[nH]ncc2cc1OC1CCOCC1` [Example 365] had a melting point of 151 to 153 °C.
